One assay relates to Candida albicans. Briefly: MIC and Synergy Index (Kull) of two-component compositions. Format: cell-based. How it is done:
A wide range of concentrations were tested against Pseudomonas aeruginosa, Staphylococcus aureus, Escherichia coli, and Candda albicans.
The lowest concentration of each mixture or single compound which prevents an observable level of growth was determined to be the minimum inhibitory concentration (MIC) value.
Serial dilutions of each mixture or single compound were prepared. Micro-organisms were inoculated into media: Nutrient Broth (bacteria) or Malt Extract Broth (yeast). The final concentrations of micro-organisms in media was approximately 10^5-6 CFU/ml. The inoculated media was introduced to each of the serial dilutions at a 1:1 ratio, and incubated at 30±1° C. for 24-48 hours.
The MICs for each mixture was compared with the MIC of each single compound alone.
In this study the end point is measured by the MIC.

The next assay deals with C. albicans. The experiment in a line: Preservation efficacy test in sterile distilled water, drop plate. In kind it is cell-based, Candida albicans. Conditions: 7 days, pH 7, Potassium Sorbate 0 ppm. How it is done: Yeast strains were harvested and prepared in diluent (sterile distilled water) to obtain a final concentration of 1.0×10^5 to 1.0×10^6 cfu/ml.
Preservation efficacy testing started at Day 0 (t=0). Each sample was inoculated at t=0 with a known concentration of micro-organism. Each inoculated sample was then mixed until a homogenous mixture was obtained. Inoculated samples were stored in the dark at 22.5±2.5° C. throughout the test period.
At the specified contact time of 7 days (t=7), test samples were deactivated by adding a 0.1 ml aliquot of the test sample to 0.9 ml of an appropriate neutralising broth. The solution was left for 15 minutes. Subsequent dilutions were prepared by serial dilution of 0.1 ml into 0.9 ml of neutralising broth. Bacteria were serially diluted to 10^−4, Fungi were serially diluted to 10^−3.
Each serial dilution was thoroughly mixed and 25 μl drops were aliquoted onto the surface of pre-prepared agar plates. Plates were prepared in sextupicate for each sample dilution.
The agar plates were allowed to dry, then inverted and incubated under conditions appropriate for the test microorganisms.
CFU/ml was calculated taking into account dilution factors. Colonies from the incubated plates were enumerated using the lower count limit of <10 CFU/ml and the upper count limit of >330 CFU/ml.
The lower and upper limits for drop plating were only employed on the highest and lowest dilution factor plates.
The test organisms were prepared and the method was performed according to the protocol of Example 1.

By MIC is commonly meant the smallest concentration in the dilution series that meets the test's criterion for growth inhibition. `CCCCOC(=O)CCC(C)=O` [Butyl Levulinate, butyl levulinate]: the MIC in the assay on Candida albicans (Candida albicans, butyl levulinate alone, or its concentration in the mixture with Sodium benzoate, read-out: MIC (ppm) to inhibit growth: Butyl levulinate) amounted to 6250 µg/mL. Moreover, the “MIC (ppm) to inhibit growth: Butyl levulinate” value in the assay on Candida albicans (butyl levulinate alone, or its concentration in the mixture with BIT) came out at 6250 ppm; in the assay with Candida albicans (butyl levulinate alone, or its concentration in the mixture with DHA) it was 6250 ppm; with Candida albicans (butyl levulinate alone, or its concentration in the mixture with HPNO) it was 6250 ppm; with Candida albicans (butyl levulinate alone, or its concentration in the mixture with PHMB), 6250 ppm; in the assay on Candida albicans (butyl levulinate alone, or its concentration in the mixture with Potassium Sorbate), 6250 ppm; in the assay with Candida albicans (butyl levulinate alone, or its concentration in the mixture with Sodium pyrithione), 6250 ppm. Besides, the Log reduction is 0.11 with C. albicans (Butyl Levulinate 500 ppm); 0.22 in the assay on C. albicans (Butyl Levulinate 1000 ppm); 0.11 in the assay with C. albicans (Butyl Levulinate 1500 ppm); −0.11 in the assay with C. albicans (Butyl Levulinate 2000 ppm); 0.18 in the assay with C. albicans (Butyl Levulinate 2500 ppm).
